Laboratory results taken from PMC6271978, “1H-2,3-Dihydroperimidine Derivatives: A New Class of Potent Protein Tyrosine Phosphatase 1B Inhibitors” (Molecules, 2013).
Entries after “also recorded” stand apart in the source; their conditions may differ.

Columns and labels:
[1] = test system: tyrosine phosphorylation of insulin receptor β in CHO/hIR cells; test: Tyrosine phosphorylation of insulin receptor in CHO/hIR cells (Western blot); type: cell-based, hamster CHO cells expressing human insulin receptor; settings: compound 5 µM to 20 µM for 3 h, insulin 10 nM 10 min, versus DMSO
Protocol: To explore the effect of PTP1B inhibitor in vitro on insulin signaling, CHO cells overexpressing human insulin receptor (CHO/hIR) were treated in presence or absence of compound, then tyrosine phosphorylation level of insulin receptor (p-IR) was detected after stimulated by insulin.
CHO/hIR cells were cultured in F12 nutrient medium including 10% (V/V) FBS, 100 units/mL penicillin and 100 μg/mL streptomycin with 5% CO2 at 37 °C. Cells were serum free starved for 2 h, and then treated with compounds for 3 h, followed with insulin (10 nM, Eli Lilly) for 10 min before harvested. Cells were rinsed twice with precooled 1× PBS and then lysed with 1× SDS loading buffer. Samples were heated at 100 °C for 15 min before electrophoresed with 8% SDS-polyarylamide gel under 80 to 120 volt voltage, and then transferred to nitrocellulose (NC) membranes. NC membranes were blocked for 2 h with 5% BSA (W/V) dissolved in TBST. The membranes incubated with primary antibodies overnight at 4 °C and secondary antibodies for 1 h at room temperature. The primary antibody p-Tyr (PY20) used was from Santa Cruz (Dallas, CA, USA) and β-actin from Sigma (St. Louis, MO, USA), secondary antibody was from Jackson Immuno Research (Philadelphia, PA, USA).

PTP1B = target: T1, PTP1B (Homo sapiens, UniProt P18031); test: Enzyme kinetics: fast-binding and inhibition modality on PTP1B; type: biochemical
T1 sequence (P18031 1-435): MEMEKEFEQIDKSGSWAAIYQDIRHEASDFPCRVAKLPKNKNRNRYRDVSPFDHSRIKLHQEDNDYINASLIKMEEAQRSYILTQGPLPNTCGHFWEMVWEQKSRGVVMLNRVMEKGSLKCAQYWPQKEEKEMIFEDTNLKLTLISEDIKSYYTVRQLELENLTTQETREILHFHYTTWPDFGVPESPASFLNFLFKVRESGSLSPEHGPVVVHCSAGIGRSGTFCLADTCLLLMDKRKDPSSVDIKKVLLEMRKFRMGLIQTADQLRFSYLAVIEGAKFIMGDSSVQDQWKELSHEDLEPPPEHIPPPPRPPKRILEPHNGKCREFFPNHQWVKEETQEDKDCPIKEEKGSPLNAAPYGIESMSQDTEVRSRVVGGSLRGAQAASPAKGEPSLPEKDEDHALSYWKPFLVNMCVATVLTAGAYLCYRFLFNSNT
Protocol: A kinetic study was performed in order to identify the inhibitory mechanism of compound 46 (Figure 2), using the reported enzyme kinetics assays.
To characterize the inhibitor of PTP1B, the assay was carried out in a 100 μL system containing 50 mmol/L MOPS, pH 6.5, 14 nmol/L PTP1B, pNPP in 2-fold dilution from 80 mmol/L, and different concentrations of the inhibitor. […] (2) where Km is the Michaelis constant, v is the initial rate, Vmax is the maximum rate, and [S] is the substrate concentration. The Ki value was obtained by the linear replot of apparent Km/Vmax (slope) from the primary reciprocal plot versus the inhibitor concentration [I] according to the equation Km/Vmax = 1 + [I]/Ki.

O=C(O)CNC(=O)c1ccc(C2Nc3cccc4cccc(c34)N2)nc1 [Compound 46]
tyrosine phosphorylation level of insulin receptor (p-IR) [1]: greatly improved p-IR level | inhibition modality toward PTP1B (PTP1B; Lineweaver-Burk plot, increased Km, unchanged Vmax, pNPP substrate): competitive inhibitor; also recorded: Typical competitive inhibition | binding behaviour of inhibition of PTP1B (time dependence) (PTP1B; preincubation of PTP1B with compound on ice for different times): fast-binding inhibition
